Data reported in patent US11414450B1, “Aminoglycosides and uses thereof” (REVAGENIX, INC., priority 2017, dated 2022).

How the values were obtained:
Type in all cases: cell-based
[1] = system: E. coli efflux parent; assay: MIC broth microdilution, E. coli efflux parent strain; conditions: Table 2; geometric mean
Description: (§1) Minimum inhibitory concentrations for the example compounds herein are determined by the broth microdilution method in accordance with the Clinical and Laboratory Standards Institute (CLSI) guidelines. In brief, organism suspensions are adjusted to a 0.5 McFarland standard to yield a final inoculum between 3×10^5 and 7×10^5 colony-forming units (CFU)/mL. Compound dilutions and inocula are made in sterile, cation adjusted Mueller-Hinton Broth (Beckton Dickinson). The inoculum is prepared by suspension of a colony from an agar plate that is prepared the previous day. Bacteria are suspended in sterile saline and added to each assay plate to obtain a final concentration of 5×10^5 CFU/mL. An inoculum volume of 100 μL is added to wells containing 100 μL of broth with 2-fold serial dilutions of the compound. All inoculated microdilution trays are incubated in ambient air at 35° C. for 18-24 hours. Following incubation, the lowest concentration of the compound that prevents visible growth (OD 600 nm<0.05) is recorded as the MIC. […] Performance of the assay is monitored by the use of laboratory quality-control strains and a compound with a defined MIC spectrum (such as levofloxacin), in accordance with CLSI guidelines. Compounds are tested against multiple microbiologic panels. Panels include: 1) a multi-species primary screening panel that includes multiple defined AG-R mechanisms; 2) a panel of isogenic strains carrying different common mechanisms of AG-R that allows characterization of the SAR for AMEs, RMTs, and entry and efflux resistance mechanisms; and 3) panels of recent clinical isolates selected from Phase 3 studies and ongoing global surveillance.

[2] = system: E. coli isogenic strain aph(3′)-Ia; assay: MIC broth microdilution, E. coli isogenic strain aph(3′)-Ia; conditions: Table 2; aph(3′)-Ia has activity at both the 3′-hydroxy and 5″-hydroxy positions
Description: as §1

[3] = system: E. coli isogenic strain armA; assay: MIC broth microdilution, E. coli isogenic strain armA; conditions: Table 2
Description: as §1

[4] = system: E. coli ATCC 25922; assay: Minimum inhibitory concentration (broth microdilution, CLSI), E. coli ATCC 25922; conditions: Table 2; geometric mean
Description: as §1

[5] = system: E. coli isogenic strain aac(6′)-Ib; assay: MIC broth microdilution, E. coli isogenic strain aac(6′)-Ib; conditions: Table 2
Description: as §1

[6] = system: E. coli isogenic strain empty vector; assay: MIC broth microdilution, E. coli isogenic strain, empty vector; conditions: Table 2
Description: as §1

[7] = system: E. coli isogenic strain aph(3′)-II; assay: MIC broth microdilution, E. coli isogenic strain aph(3′)-II; conditions: Table 2
Description: as §1

[8] = system: E. coli isogenic strain ant(4′)-Ia; assay: MIC broth microdilution, E. coli isogenic strain ant(4′)-Ia; conditions: Table 2
Description: as §1

[9] = system: E. coli Δefflux (tolC efflux pump knocked-out); assay: MIC broth microdilution, E. coli Δefflux strain (tolC knocked out); conditions: Table 2
Description: as §1

[10] = system: E. coli isogenic strain nmpA; assay: MIC broth microdilution, E. coli isogenic strain nmpA; conditions: Table 2
Description: as §1

Row | SMILES | Geometric Mean MIC values, E. coli efflux parent [1] | Geometric Mean MIC values, E. coli isogenic strains, aph(3′)-Ia [2] | Geometric Mean MIC values, E. coli isogenic strains, armA [3] | Geometric Mean MIC values, E. coli ATCC 25922 [4] | Geometric Mean MIC values, E. coli isogenic strains, aac(6′)-Ib [5] | Geometric Mean MIC values, E. coli isogenic strains, empty vector [6] | Geometric Mean MIC values, E. coli isogenic strains, aph(3′)-II [7] | Geometric Mean MIC values, E. coli isogenic strains, ant(4′)-Ia [8] | Geometric Mean MIC values, E. coli Δefflux [9] | Geometric Mean MIC values, E. coli isogenic strains, nmpA [10]
1 | CC(N)C1CCC(N)C(OC2C(N)CC(N)C(O)C2OC2OC(CO)C(OC3OC(CN)C(O)C(O)C3N)C2O)O1 (stereo not drawn) [drawing 858] | 1 mg/L | >64 mg/L | 1.4 mg/L | 2 mg/L | 1 mg/L | 1 mg/L | 1 mg/L | 0.5 mg/L | 1 mg/L | >64 mg/L
2 | NC[C@@H]1O[C@H](O[C@H]2[C@@H](O)[C@H](O[C@@H]3[C@@H](O)[C@H](N)C[C@H](N)[C@H]3O[C@H]3O[C@H](CN)[C@@H](O)[C@H](O)[C@H]3N)O[C@@H]2CO)[C@H](N)[C@@H](O)[C@@H]1O [NEO, neomycin B, reference compound] | 0.76 mg/L | >64 mg/L | 0.75 mg/L | 1 mg/L | 1.6 mg/L | 0.64 mg/L | 18 mg/L | 2.2 mg/L | 0.79 mg/L | 80 mg/L
3 | CCC(N)C1CCC(N)C(OC2C(N)CC(N)C(O)C2OC2OC(CO)C(OC3OC(CN)C(O)C(O)C3N)C2O)O1 (stereo not drawn) [drawing 861] | 2 mg/L | >64 mg/L | 5.7 mg/L | 1.4 mg/L | 1 mg/L | 1 mg/L | 0.5 mg/L | 0.5 mg/L | 1 mg/L | >64 mg/L
4 | NCC1OC(OC2C(CO)OC(OC3C(O)C(N)CC(N)C3OC3OC(CN)C(O)C(F)C3O)C2O)C(N)C(O)C1O (stereo not drawn) [drawing 867] | 1.4 mg/L | 64 mg/L | 2.8 mg/L | 2 mg/L | >64 mg/L | 2 mg/L | 1.4 mg/L | 64 mg/L | 1 mg/L | >64 mg/L
5 | NCC1OC(OC2C(N)CC(N)C(O)C2OC2OC(CO)C(OC3OC(CN)C(O)C(O)C3N)C2O)C(N)CC1O (stereo not drawn) [drawing 864, reference compound] | 0.63 mg/L | 38 mg/L | 0.6 mg/L | 0.71 mg/L | 2 mg/L | 0.32 mg/L | 0.25 mg/L | 2 mg/L | 0.25 mg/L | >64 mg/L
6 | CC(N)C1CCC(N)C(OC2C(N)CC(N)C(O)C2OC2OC(CO)C(OC3OC(CN)C(O)C(O)C3N)C2O)O1 (stereo not drawn) [drawing 857] | 1 mg/L | 64 mg/L | 1.5 mg/L | 1.4 mg/L | 1 mg/L | 0.84 mg/L | 0.71 mg/L | 0.71 mg/L | 0.84 mg/L | >64 mg/L
